Measured values taken from US20090215710A1, “CARBOHYDRATE BASED TOLL-LIKE RECEPTOR (TLR) ANTAGONISTS” (RELIANCE LIFE SCIENCES PVT. LTD., priority 2007, published 2009).

Experiments:
Balb/c mice [1] = experiment: LPS induced TNF-α release in Balb/c mice, pre-treatment; format: in vivo; details: 1 hr post LPS
Procedure: The present invention has studied the ability of RSCL-0409 to exert protection against inflammatory agents in a mice (Balb/c) model. Balb/c (5-6 weeks) mice were injected with LPS (225 μg) intraperitoneally with and without pretreatment of three concentrations of RSCL-0409 (10 mg/kg, 20 mg/kg and 40 mg/kg). The compound was injected intraperitoneally 30 min before LPS treatment. The mice were monitored for 1 hr post LPS treatment. RSCL-0409 injected alone served as negative control. Blood collection was done retro-orbitally under anesthesia, 1 hr post LPS injection. Serum collected after cells were allowed to settle was analysed for TNF-α secretion.

Balb/c mice [2] = experiment: LPS induced TNF-α release in Balb/c mice, treatment post LPS; format: in vivo; details: 30 min post LPS (225 μg i.p.)
Procedure: Here we have stimulated the inflammation process in mice with an injection of LPS (225 μg) intraperitoneally and 30 min post LPS, we have challenged the ability of RSCL-0409 (10 mg/kg, 20 mg/kg) to inhibit the TNF-α secretion.

[3] = Cell viability in pre-screen (Table 1); format: cell-based
TNF-α mRNA = TNF-α mRNA expression in LPS stimulated THP-1 cells (real-time PCR); format: cell-based, human; details: THP-1, LPS 250 ng/ml 1 hr
Procedure: To determine whether the suppressive effect of RSCL-0409 on the cytokine production occurs at mRNA expression level, quantitative real-time PCR was used to examine TNF-α and IL-6 mRNA expression in THP-1 cells stimulated with LPS. THP-1 cells (3×10^6 cells/well) were stimulated with 250 ng/ml LPS in the presence or absence of RSCL-0409 at indicated concentrations for the 1 hr. Total RNA was isolated from these cells and cDNA was synthesized. LPS treated cells acted as positive control. All quantitative real-time PCR (TaqMan™) primers and probes were obtained from Applied Biosystems (ABI), Weiterstadt, Germany. For detection of TNF-α, pre-developed assay reagents (Universal master mix as obtained from Applied Biosystems included all reagents including Taq-polymerase apart from specific primers and probes) were used. The PCR was performed utilizing 1 μl cDNA per reaction in triplicates of 25 μl volume on an ABI 7500 Realtime PCR machine using a 2-step PCR protocol.
Quantization of mRNA was performed using the comparative threshold cycle method and analysed using standard software and expressed in fold change. The fold change of TNF-α (FIG. 5a) and IL-6 (FIG. 5b) mRNA in treated cells over control was obtained after correction for the amount of β-actin. […] The expression levels of both TNF and IL-6 decreased following 1 hr pretreatment with RSCL-0409 in the presence of LPS. […]

NF-κB [4] = experiment: NF-κB SEAP reporter assay in THP-1 CD14 Blue cells; format: cell-based, human; details: LPS 250 ng/ml, 24 hr
Procedure: THP-1 CD14 Blue cells (Invivogen, San Diego, Calif., USA) transfected with a SEAP reporter construct in which the reporter expression was regulated by the NF-κB promoter were stimulated with LPS (250 ng/ml) with or without RSCL-0409 for 24 hr. […] The reporter activity was determined using Quanti Blue kit (Invivogen). The data (FIG. 8) is plotted as the relative change of reporter activity. NS; not significant, ** P value <0.01, *** P value <0.001 are statistics for Cells Vs RSCL-0409 treated and LPS treated vs. RSCL-0409 followed by LPS treatment respectively. These observations further confirm that the RSCL-0409 inhibits LPS induced TLR mediated activation of NF-κB transcription factor.

NF-κB [5] = experiment: NF-κB activation and nuclear translocation in LPS stimulated THP-1 cells (FACS phospho p65, immunoblot); format: cell-based, human
Procedure: Further, for the detection of intracellular location of phospho NF-κB p65 subunits, 1 hr LPS-stimulated cells with and without pretreatment of RSCL-0409 (50 μM—FIG. 7b) were fixed with 4% paraformaldehyde in PBS for 30 min and washed with Fluorescence-activated cell sorting (FACS) buffer [2% Fetal calm serum (FCS) in 1× Phosphate buffered saline (PBS)]. Permeabilisation is done using 90% methanol. These cells were then treated with phospho p65 monoclonal antibody tagged with Alexa Fluor 488 (Cell Signaling Technology, Inc, Ma, USA) for 1 hr at 37° C., followed by washing FACS buffer. Cells were then resuspended in PBS and acquired in BD FACS Calibur.
The nuclear fractions were obtained from LPS stimulated THP-1 cells at the indicated times (FIG. 7c). Nuclear proteins electrophoresed were processed for immunoblots using a NF-κB specific antibody.

NEMO and IκB-α = experiment: Immunoblot of NEMO and IκB-α in LPS stimulated THP-1 cells; format: cell-based, human; details: THP-1, LPS 250 ng/ml
Procedure: NF-κB/IκB complexes are present in the cytoplasm under unstimulated conditions. Following stimulation with LPS, we see phosphorylation and subsequent degradation of IκB allowing the free NF-κB to translocate into the nucleus to activate genes with NF-κB binding regions. Therefore, the effect of RSCL-0409 on blocking of NF-κB nuclear translocation was checked. Serum-starved THP-1 cells were stimulated with LPS (250 ng/ml) for the indicated time (FIG. 7a) in the presence and absence of RSCL-0409 ([…]). RSCL-0409 treatment was 1 hr prior to LPS treatment. Total protein was isolated from the treated cells, and an equal amount of protein from each sample was used for immunoblots to determine protein levels of NEMO and IκB-α. The blot was stripped and reprobed with an anti-ERK-1/2 antibody to ensure equal loading. […] This leads to inhibition of phosphorylation and further blocking p65 dissociation from IκB-α.

THP-1 cells = experiment: MTT toxicity assay in THP-1 cells; format: cell-based, human
Source text: The toxicity of RSCL-0409 (FIG. 2b) was also by treating cells with RSCL-0409 by MTT assay. […] The viability of the cells (analyzed in tandem by MTT) was not affected by RSCL-0409 indicating its non-toxic nature.

## COc1ccc(OC2OC3COC(c4ccccc4)OC3C(OC3OC(COC(=O)CCC(C)=O)C(OC(=O)CCl)C(OC(C)=O)C3OC(C)=O)C2NC(=O)C(Cl)(Cl)Cl)cc1 [RSCL-0409, p-Methoxy phenyl-O-(2,3-di-O-acetyl-4-O-chloroacetyl-6-O-levulinoyl-β-D-glucopyranosyl)-(1-3)-2-deoxy-2-trichloroacetamido-4,6-O-benzylidene-α-D-glucopyranoside]
Balb/c mice [1]; 10 mg/kg i.p. 30 min before LPS (225 μg i.p.)
  reduction of serum TNF production: ~53%
Balb/c mice [1]; 20 mg/kg i.p. 30 min before LPS (225 μg i.p.)
  reduction of serum TNF production: ~64%
Balb/c mice [1]; 40 mg/kg i.p. 30 min before LPS (225 μg i.p.)
  reduction of serum TNF production: ~67%
Balb/c mice [2]; 10 mg/kg
  inhibition of TNF secretion: ~39%
Balb/c mice [2]; 20 mg/kg
  inhibition of TNF secretion: ~47%
[3]; 1 uM
  % Viability: 108%
[3]; 10 uM
  % Viability: 112%
[3]; 50 uM
  % Viability: 114%
[3]; 100 uM
  % Viability: 113%
TNF-α mRNA
  TNF-α mRNA expression: down regulated TNF-α to almost control levels
NF-κB [4]
  SEAP reporter activity (NF-κB promoter): blocked in a dose dependent manner
NF-κB [5]; THP-1, 1 hr LPS, 50 μM
  phospho NF-κB p65 (FACS): inhibitory role in NF-κB signaling
NF-κB [5]; nuclear fractions of LPS stimulated THP-1 cells
  translocation of NF-κB to the nucleus: blocked translocation of NF-κB into the nucleus
NEMO and IκB-α
  activation of NEMO: blocked signaling to NEMO
  degradation of IκB-α: accumulation of IκB-α
THP-1 cells
  viability of the cells (MTT): not affected
